Laboratory results published in ChEMBL document CHEMBL3991601, “The target landscape of clinical kinase drugs” (Science, 2017).
pKd: −log10 of the molar value. Calls of active or inactive are those of the source.

Assays:
Activin receptor type-2B = Activin receptor type-2B (Homo sapiens, UniProt Q13705)
[1] = target: Casein kinase II subunit alpha' (Homo sapiens, UniProt P19784)
[2] = target: T1, Serine/threonine-protein kinase Nek9 (Homo sapiens, UniProt Q8TD19)
T1 sequence (Q8TD19 whole entry): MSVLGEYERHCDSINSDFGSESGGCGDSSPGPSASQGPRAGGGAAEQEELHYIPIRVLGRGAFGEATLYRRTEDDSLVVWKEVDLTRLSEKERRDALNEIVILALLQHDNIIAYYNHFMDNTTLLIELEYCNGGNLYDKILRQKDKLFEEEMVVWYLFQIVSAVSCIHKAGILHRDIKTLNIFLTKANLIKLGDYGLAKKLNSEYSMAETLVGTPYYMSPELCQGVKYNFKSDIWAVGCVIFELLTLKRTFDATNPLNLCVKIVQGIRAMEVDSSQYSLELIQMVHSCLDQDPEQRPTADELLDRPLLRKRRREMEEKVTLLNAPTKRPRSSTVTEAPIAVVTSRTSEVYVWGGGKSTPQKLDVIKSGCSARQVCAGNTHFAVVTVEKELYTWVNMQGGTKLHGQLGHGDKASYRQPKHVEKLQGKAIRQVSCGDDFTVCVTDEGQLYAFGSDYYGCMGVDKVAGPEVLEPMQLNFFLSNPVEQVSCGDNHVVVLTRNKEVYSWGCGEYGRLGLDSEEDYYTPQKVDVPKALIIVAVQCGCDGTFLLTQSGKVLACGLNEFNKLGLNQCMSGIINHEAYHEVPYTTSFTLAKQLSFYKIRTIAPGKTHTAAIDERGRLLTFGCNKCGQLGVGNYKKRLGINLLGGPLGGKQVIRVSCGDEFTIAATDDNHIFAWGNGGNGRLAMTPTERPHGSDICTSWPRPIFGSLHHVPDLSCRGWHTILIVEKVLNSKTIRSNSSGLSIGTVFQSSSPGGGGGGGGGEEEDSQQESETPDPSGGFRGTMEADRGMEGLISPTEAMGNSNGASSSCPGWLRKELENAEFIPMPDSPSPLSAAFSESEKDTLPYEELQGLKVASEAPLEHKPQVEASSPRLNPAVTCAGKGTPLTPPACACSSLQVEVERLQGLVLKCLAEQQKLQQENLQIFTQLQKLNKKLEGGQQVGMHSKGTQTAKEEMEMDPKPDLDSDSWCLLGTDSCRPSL

Obg-like ATPase 1 = Obg-like ATPase 1 (Homo sapiens, UniProt Q9NTK5)
[3] = target: Serine/threonine-protein kinase pim-1 (Homo sapiens, UniProt P11309)
[4] = target: T2, Phosphatidylinositol 5-phosphate 4-kinase type-2 alpha (Homo sapiens, UniProt P48426)
T2 sequence (P48426 whole entry): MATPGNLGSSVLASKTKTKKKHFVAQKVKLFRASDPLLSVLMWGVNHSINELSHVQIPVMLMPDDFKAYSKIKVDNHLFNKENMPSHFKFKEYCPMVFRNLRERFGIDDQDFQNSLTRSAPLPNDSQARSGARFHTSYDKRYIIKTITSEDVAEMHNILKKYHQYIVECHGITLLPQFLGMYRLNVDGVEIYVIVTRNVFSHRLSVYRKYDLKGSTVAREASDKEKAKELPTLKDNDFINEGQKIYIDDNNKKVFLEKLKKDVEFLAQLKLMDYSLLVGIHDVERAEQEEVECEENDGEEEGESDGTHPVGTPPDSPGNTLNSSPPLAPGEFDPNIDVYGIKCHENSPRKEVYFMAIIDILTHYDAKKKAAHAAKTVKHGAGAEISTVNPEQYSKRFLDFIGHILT

[5] = target: Serine/threonine-protein kinase N2 (Homo sapiens, UniProt Q16513)
[6] = target: T3, Signal recognition particle receptor subunit alpha (Homo sapiens, UniProt P08240)
T3 sequence (P08240 whole entry): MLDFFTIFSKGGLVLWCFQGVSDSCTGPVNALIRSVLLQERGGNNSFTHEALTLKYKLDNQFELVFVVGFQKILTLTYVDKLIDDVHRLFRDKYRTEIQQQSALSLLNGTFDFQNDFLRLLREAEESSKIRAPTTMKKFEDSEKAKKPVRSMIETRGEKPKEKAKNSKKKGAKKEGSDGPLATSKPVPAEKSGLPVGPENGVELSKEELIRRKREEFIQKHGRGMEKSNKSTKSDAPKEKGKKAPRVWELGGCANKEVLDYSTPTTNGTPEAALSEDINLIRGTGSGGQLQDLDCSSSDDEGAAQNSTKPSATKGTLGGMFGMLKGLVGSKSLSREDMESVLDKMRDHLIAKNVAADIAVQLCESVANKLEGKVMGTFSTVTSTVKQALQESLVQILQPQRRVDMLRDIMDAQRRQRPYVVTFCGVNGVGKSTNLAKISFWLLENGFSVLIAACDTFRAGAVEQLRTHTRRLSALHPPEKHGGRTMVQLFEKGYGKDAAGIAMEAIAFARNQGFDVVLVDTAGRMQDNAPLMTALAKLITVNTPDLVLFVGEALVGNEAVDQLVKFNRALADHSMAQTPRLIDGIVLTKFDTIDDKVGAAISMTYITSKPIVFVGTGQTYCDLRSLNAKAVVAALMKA

TGF-beta receptor type-2 = TGF-beta receptor type-2 (Homo sapiens, UniProt P37173)
[7] = target: Casein kinase I isoform epsilon (Homo sapiens, UniProt P49674)
[8] = target: Serine/threonine-protein kinase 16 (Homo sapiens, UniProt O75716)
Scaffold protein ILK = target: T4, Scaffold protein ILK (Homo sapiens, UniProt Q13418)
T4 sequence (Q13418 whole entry): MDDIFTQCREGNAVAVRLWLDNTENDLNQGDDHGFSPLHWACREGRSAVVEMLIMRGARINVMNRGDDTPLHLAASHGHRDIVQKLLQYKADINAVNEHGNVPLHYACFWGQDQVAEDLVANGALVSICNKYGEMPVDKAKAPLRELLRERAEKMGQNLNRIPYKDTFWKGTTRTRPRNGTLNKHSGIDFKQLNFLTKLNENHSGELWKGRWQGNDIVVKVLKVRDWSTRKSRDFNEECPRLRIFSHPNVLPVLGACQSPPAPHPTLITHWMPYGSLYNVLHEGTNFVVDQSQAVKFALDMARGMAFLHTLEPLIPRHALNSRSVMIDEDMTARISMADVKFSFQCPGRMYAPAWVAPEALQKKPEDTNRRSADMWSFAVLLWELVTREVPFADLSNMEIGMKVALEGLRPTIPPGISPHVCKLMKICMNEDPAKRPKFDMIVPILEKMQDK
Further: in the data inactive means no Kd found up to 30 µM.

Chain of Casein kinase I isoform epsilon (P49674 whole entry, canonical isoform): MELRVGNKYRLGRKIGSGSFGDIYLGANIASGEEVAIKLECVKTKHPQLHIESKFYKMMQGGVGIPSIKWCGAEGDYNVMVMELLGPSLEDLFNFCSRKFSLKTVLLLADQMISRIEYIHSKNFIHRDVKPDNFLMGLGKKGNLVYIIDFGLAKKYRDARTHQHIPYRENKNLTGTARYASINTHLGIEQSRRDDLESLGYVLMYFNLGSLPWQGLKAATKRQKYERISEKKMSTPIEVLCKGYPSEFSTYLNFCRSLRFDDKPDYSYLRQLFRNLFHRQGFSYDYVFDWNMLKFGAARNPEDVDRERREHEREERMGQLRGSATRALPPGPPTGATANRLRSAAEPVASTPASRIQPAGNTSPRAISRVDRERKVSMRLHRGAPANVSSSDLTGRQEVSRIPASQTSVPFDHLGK
Chain of Serine/threonine-protein kinase 16 (O75716 whole entry): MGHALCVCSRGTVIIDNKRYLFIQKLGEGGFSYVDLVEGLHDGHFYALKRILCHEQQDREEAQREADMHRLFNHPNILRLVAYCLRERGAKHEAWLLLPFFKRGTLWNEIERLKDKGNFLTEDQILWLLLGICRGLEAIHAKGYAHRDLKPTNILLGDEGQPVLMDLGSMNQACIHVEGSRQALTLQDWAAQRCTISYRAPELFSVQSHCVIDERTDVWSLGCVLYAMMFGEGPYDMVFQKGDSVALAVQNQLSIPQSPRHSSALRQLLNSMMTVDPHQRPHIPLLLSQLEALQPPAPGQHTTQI
Chain of Serine/threonine-protein kinase N2 (Q16513 whole entry): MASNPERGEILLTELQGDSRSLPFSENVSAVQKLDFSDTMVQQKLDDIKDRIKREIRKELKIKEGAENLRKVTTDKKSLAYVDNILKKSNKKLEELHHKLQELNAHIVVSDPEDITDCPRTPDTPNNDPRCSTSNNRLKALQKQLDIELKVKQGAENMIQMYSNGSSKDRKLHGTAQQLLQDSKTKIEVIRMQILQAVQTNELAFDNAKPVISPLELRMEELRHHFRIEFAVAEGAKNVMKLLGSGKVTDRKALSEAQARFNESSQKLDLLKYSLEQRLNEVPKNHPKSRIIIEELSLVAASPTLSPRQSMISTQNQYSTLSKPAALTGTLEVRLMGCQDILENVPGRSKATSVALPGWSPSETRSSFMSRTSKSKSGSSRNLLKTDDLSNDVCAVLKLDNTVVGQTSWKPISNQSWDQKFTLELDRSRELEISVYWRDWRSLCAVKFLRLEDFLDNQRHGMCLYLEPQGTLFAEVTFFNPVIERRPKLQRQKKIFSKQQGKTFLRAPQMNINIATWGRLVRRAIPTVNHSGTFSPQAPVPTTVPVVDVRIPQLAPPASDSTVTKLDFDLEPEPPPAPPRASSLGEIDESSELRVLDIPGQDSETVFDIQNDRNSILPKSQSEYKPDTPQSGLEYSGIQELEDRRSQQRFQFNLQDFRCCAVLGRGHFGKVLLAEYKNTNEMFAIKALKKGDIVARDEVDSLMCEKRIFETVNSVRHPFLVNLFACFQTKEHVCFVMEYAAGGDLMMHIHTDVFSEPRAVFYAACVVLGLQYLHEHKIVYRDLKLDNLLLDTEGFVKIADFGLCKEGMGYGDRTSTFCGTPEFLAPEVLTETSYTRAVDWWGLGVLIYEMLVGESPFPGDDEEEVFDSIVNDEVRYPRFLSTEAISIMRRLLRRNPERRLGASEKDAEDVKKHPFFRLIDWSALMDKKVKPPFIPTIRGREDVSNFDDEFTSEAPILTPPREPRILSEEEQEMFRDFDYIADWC
Chain of Casein kinase II subunit alpha' (P19784 whole entry): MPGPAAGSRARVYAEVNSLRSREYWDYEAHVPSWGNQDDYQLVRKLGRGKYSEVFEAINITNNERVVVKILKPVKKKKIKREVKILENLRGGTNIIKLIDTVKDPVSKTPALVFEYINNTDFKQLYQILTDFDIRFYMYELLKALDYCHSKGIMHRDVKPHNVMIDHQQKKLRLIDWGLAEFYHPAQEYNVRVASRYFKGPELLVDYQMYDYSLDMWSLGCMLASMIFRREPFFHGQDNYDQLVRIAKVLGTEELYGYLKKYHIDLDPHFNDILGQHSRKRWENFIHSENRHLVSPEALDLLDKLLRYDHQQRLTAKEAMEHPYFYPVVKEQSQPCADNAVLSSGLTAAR
Chain of Serine/threonine-protein kinase pim-1 (P11309 whole entry): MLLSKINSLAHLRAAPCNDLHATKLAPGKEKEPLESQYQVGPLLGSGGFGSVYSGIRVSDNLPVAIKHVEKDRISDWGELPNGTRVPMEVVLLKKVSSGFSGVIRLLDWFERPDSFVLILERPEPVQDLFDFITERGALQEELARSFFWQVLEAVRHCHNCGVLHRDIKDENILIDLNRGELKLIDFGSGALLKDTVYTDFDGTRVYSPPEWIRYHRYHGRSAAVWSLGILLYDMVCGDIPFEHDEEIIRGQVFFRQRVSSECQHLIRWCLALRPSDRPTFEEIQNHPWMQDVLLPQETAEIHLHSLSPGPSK
Chain of Activin receptor type-2B (Q13705 whole entry): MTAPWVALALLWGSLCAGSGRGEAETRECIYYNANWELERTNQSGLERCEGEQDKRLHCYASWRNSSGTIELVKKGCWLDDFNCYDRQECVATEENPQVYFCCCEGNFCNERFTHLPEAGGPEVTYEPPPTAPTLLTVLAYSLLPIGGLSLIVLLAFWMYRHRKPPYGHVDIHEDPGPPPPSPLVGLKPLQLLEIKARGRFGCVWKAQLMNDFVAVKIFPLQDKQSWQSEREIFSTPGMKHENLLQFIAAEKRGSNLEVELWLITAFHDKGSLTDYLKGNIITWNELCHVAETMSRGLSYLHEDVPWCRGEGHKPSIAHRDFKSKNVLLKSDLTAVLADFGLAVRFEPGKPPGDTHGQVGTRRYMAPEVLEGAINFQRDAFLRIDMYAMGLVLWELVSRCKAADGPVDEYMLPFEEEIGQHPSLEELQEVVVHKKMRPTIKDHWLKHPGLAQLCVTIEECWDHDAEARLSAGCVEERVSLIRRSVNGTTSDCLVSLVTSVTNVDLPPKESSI
Chain of Obg-like ATPase 1 (Q9NTK5 whole entry, looked up): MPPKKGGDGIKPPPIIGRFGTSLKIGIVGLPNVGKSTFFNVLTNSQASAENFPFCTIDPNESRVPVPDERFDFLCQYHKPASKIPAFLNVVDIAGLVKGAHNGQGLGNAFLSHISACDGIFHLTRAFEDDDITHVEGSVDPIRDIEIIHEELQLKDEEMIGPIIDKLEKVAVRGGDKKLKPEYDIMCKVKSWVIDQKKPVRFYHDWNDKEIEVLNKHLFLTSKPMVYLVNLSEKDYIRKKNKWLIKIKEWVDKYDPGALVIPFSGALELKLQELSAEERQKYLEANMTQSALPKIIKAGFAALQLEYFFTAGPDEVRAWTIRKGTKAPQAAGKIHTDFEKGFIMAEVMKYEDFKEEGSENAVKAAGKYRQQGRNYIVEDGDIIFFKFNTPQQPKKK
Chain of TGF-beta receptor type-2 (P37173 whole entry, canonical isoform): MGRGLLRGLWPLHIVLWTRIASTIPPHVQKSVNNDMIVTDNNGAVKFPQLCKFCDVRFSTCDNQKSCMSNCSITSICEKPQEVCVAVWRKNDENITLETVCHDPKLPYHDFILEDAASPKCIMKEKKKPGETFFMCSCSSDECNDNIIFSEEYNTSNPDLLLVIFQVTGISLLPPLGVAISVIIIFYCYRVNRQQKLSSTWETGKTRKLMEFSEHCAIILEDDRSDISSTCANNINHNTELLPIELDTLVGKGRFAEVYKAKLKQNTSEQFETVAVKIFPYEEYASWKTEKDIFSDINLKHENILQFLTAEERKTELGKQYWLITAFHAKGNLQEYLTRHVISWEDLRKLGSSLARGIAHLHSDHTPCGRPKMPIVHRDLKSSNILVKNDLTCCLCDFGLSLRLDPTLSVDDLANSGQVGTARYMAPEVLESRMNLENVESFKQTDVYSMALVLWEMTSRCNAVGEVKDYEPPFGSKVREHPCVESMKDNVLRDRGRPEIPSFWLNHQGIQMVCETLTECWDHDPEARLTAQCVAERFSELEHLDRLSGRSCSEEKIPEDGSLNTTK

| Kd (Activin receptor type-2B) | Kd [1] | Kd (Obg-like ATPase 1) | Kd [3] | Kd [4] | Kd [5] | Kd [6] | Kd (TGF-beta receptor type-2) | Kd [7] | Kd [8] | Kd (Scaffold protein ILK) | pKd (TGF-beta receptor type-2) | Structure (SMILES) | Kd [2] |
| --- | --- | --- | --- | --- | --- | --- | --- | --- | --- | --- | --- | --- | --- |
| > 30 µM (inactive) | > 30 µM (inactive) | > 30 µM (inactive) | > 30 µM (inactive) | > 30 µM (inactive) | > 30 µM (inactive) | > 30 µM (inactive) | > 30 µM (inactive) | > 30 µM (inactive) | > 30 µM (inactive) |  |  | Cc1csc(-c2nnc(Nc3ccc(Oc4ncccc4-c4ccnc(N)n4)cc3)c3ccccc23)c1 [AMG-900] | > 30 µM (inactive) |
| > 30 µM (inactive) | > 30 µM (inactive) | > 30 µM (inactive) | > 30 µM (inactive) |  | > 30 µM (inactive) | > 30 µM (inactive) | > 30 µM (inactive) | > 30 µM (inactive) | > 30 µM (inactive) | > 30 µM (inactive) |  | Cc1nc2cc(-n3ncc(C(=O)c4cc5ccccc5[nH]4)c3N)ccc2[nH]1 [FGFR INHIBITOR DEBIO 1347] | > 30 µM (inactive) |
| > 30 µM (inactive) | > 30 µM (inactive) | > 30 µM (inactive) | > 30 µM (inactive) | > 30 µM (inactive) | > 30 µM (inactive) | > 30 µM (inactive) | > 30 µM (inactive) | > 30 µM (inactive) | 5.45 µM (active) |  |  | Cc1nc(Nc2n[nH]c3c2CN(C(=O)N[C@H](CN(C)C)c2ccccc2)C3(C)C)c2sccc2n1 [PF-03758309] | > 30 µM (inactive) |
| > 30 µM (inactive) | > 30 µM (inactive) | > 30 µM (inactive) | > 30 µM (inactive) |  | > 30 µM (inactive) | > 30 µM (inactive) | > 30 µM (inactive) | > 30 µM (inactive) | > 30 µM (inactive) | > 30 µM (inactive) |  | Cc1cnc(NC(=O)Nc2cc(Br)c(C)cc2OC[C@@H]2CNCCO2)cn1 [RABUSERTIB] | > 30 µM (inactive) |
| > 30 µM (inactive) | > 30 µM (inactive) | > 30 µM (inactive) | > 30 µM (inactive) | > 30 µM (inactive) | > 30 µM (inactive) |  | > 30 µM (inactive) | > 30 µM (inactive) | > 30 µM (inactive) | > 30 µM (inactive) |  | N#CC1(c2ccc(NC(=O)c3cccnc3NCc3ccncc3)cc2)CCCC1 [RIVOCERANIB] | > 30 µM (inactive) |
| > 30 µM (inactive) | 0.279 µM (active) | > 30 µM (inactive) | 19.3 µM (active) | > 30 µM (inactive) | > 30 µM (inactive) | > 30 µM (inactive) | 4.72 µM (active) | > 30 µM (inactive) | > 30 µM (inactive) |  |  | Cn1cc(-c2cnn3c(N)c(Br)c([C@@H]4CCCNC4)nc23)cn1 [SCH-900776] | > 30 µM (inactive) |
| > 30 µM (inactive) | > 30 µM (inactive) | > 30 µM (inactive) | > 30 µM (inactive) |  | > 30 µM (inactive) | > 30 µM (inactive) | > 30 µM (inactive) | > 30 µM (inactive) | > 30 µM (inactive) | > 30 µM (inactive) |  | O=C1NC(=O)[C@@H](c2cn3c4c(cccc24)CCC3)[C@@H]1c1c[nH]c2ccccc12 [TIVANTINIB] | > 30 µM (inactive) |
| > 30 µM (inactive) | > 30 µM (inactive) | > 30 µM (inactive) | > 30 µM (inactive) | > 30 µM (inactive) | > 30 µM (inactive) |  |  | > 30 µM (inactive) | > 30 µM (inactive) | > 30 µM (inactive) | 5.78 | C[C@@H](NC(=O)c1ncnc(N)c1Cl)c1ncc(C(=O)Nc2cc(C(F)(F)F)c(Cl)cn2)s1 [TOVORAFENIB] | > 30 µM (inactive) |
| > 30 µM (inactive) | > 30 µM (inactive) | > 30 µM (inactive) | > 30 µM (inactive) | > 30 µM (inactive) | > 30 µM (inactive) | > 30 µM (inactive) |  | > 30 µM (inactive) | > 30 µM (inactive) | > 30 µM (inactive) |  | Cn1ncc(Cl)c1-c1cc(C(=O)N[C@H](CN)Cc2ccc(F)c(F)c2)oc1Cl [UPROSERTIB] | > 30 µM (inactive) |

| Structure (SMILES) | Kd (Activin receptor type-2B) | Kd [1] | Kd (Obg-like ATPase 1) | Kd [3] | Kd [4] | Kd [5] | Kd [6] | Kd (TGF-beta receptor type-2) | Kd [7] | Kd [8] | Kd (Scaffold protein ILK) | pKd (TGF-beta receptor type-2) | Kd [2] |
| --- | --- | --- | --- | --- | --- | --- | --- | --- | --- | --- | --- | --- | --- |
| CC(=O)c1cnc2ccc(-c3cc(Cl)c(O)c(Cl)c3)nc2c1N[C@H]1CC[C@H](CN(C)C)CC1 | > 30 µM (inactive) | 0.01 µM (active) | > 30 µM (inactive) | 0.014 µM (active) | > 30 µM (inactive) | > 30 µM (inactive) | > 30 µM (inactive) | > 30 µM (inactive) |  |  |  |  | > 30 µM (inactive) |
| CCOc1cc2ncc(C#N)c(Nc3ccc(F)c(Cl)c3)c2cc1NC(=O)/C=C/CN(C)C [PELITINIB] | > 30 µM (inactive) | > 30 µM (inactive) | > 30 µM (inactive) | > 30 µM (inactive) | > 30 µM (inactive) | > 30 µM (inactive) |  | > 30 µM (inactive) | 1.48 µM (active) | > 30 µM (inactive) | > 30 µM (inactive) |  | > 30 µM (inactive) |
| CCCCCCCCCCCCCCCCCCOP(=O)([O-])OC1CC[N+](C)(C)CC1 [PERIFOSINE] | > 30 µM (inactive) | > 30 µM (inactive) | > 30 µM (inactive) | > 30 µM (inactive) |  | > 30 µM (inactive) | > 30 µM (inactive) |  | > 30 µM (inactive) | > 30 µM (inactive) | > 30 µM (inactive) |  | > 30 µM (inactive) |
| CNC(=O)c1cc(Oc2ccc(NC(=O)Nc3cc(C(C)(C)C)nn3-c3ccc4ncccc4c3)c(F)c2)ccn1 [REBASTINIB] | > 30 µM (inactive) | > 30 µM (inactive) | > 30 µM (inactive) | > 30 µM (inactive) | > 30 µM (inactive) | > 30 µM (inactive) | > 30 µM (inactive) | > 30 µM (inactive) | > 30 µM (inactive) |  | > 30 µM (inactive) |  |  |
